The numbers were not newly measured in patent publication US7807616B2, “Geranonitrile substitute” (Henkel AG & Co. KGaA, priority 2004, dated 2010), which cites them from elsewhere.

The conditions of series [1]: new findings (BASF, 2003); status 2004.
For series [2] the following is noted: solution heated at 100° C. for two hours.

Read-outs that look alike come from different tables or passages of the source.

On to `CC(C)=CCCC(C)=CC#N` [geranonitrile, 3,7-dimethyl-2,6-octadienenitrile], for which the “class under the EU classification criteria (CMR)” value in series [1] is on record as “category 3 mutagen (M:3)”.

For `O=P([O-])([O-])OP(=O)([O-])OP(=O)([O-])[O-].[Na+].[Na+].[Na+].[Na+].[Na+]` [pentasodium triphosphate], in series [2], the “diphosphate produced by hydrolysis” value was roughly 15%. The “orthophosphate produced by hydrolysis” value in series [2] was “about 8%”. In addition, the “amount of the anhydrous salt that dissolves in 100 g of water” value reads like this: (at 60°) “about 20 g”; (at 100°) “around 32 g”; (room temperature) “About 17 g”.
